{"source": "paper PMC10609499", "about": "“In Vitro Assessment of the Antidiabetic and Anti-Inflammatory Potential of Artemisia absinthium, Artemisia vulgaris and Trigonella foenum-graecum Extracts Processed Using Membrane Technologies” (Molecules, 2023)", "key": {"[1]": {"test": "Reducing power activity (iron (III) to iron (II) reduction)", "details": "absorbance at 700 nm; mean ± SD of triplicate", "description": "• ○ Reducing Power Activity (Iron (III) to iron (II) reduction) Reducing power was determined according to a previously described procedure. The absorbance was measured spectrophotometrically at 700 nm and calculation was carried out using the following formula:Reducing power (%) = [(AA − AB)/AA] × 100(3) where AA = sample absorbance; AB = control absorbance."}, "[2]": {"test": "DPPH radical scavenging activity", "details": "absorbance at 517 nm after 10 min; mean ± SD of triplicate", "experimental": "The scavenging activity on the DPPH radical of samples was determined by measuring the decrease in the DPPH maximum absorbency at 517 nm after 10 min [64] and was calculated as follows:radical scavenging activity (%) = [(AB − AA)/AB] × 100(2) where: AB = control absorbance and AA = sample absorbance."}, "[3]": {"target": "T1, α-amylase from hog pancreas (EC 3.2.1.1) (Sus scrofa, UniProt P00690)", "T1 construct": "from tissue; host or cells: hog pancreas", "T1 sequence (P00690 16-511)": "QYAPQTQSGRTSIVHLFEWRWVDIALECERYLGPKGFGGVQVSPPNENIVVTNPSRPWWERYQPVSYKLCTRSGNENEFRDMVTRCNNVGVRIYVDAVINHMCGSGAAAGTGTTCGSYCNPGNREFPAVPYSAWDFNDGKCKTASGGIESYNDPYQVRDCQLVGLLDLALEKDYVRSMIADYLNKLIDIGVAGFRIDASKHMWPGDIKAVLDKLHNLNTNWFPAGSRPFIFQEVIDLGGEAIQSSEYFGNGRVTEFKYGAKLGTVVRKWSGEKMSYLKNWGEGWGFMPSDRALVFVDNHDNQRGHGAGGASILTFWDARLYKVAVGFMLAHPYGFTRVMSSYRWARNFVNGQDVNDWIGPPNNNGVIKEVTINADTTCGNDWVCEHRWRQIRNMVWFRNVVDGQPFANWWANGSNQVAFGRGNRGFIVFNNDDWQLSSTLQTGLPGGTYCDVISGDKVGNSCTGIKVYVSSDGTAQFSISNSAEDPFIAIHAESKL", "test": "α-Amylase inhibition assay", "assay_type": "biochemical", "details": "hog pancreas enzyme, starch substrate, 37 °C, DNS, pH 6.9; mean ± SD of triplicate", "description": "The α-amylase inhibition assay was performed according to the Ranilla method, which was slightly modified. Thus, 100 μL of extract was mixed with 250 μL of α-amylase from hog pancreas (EC 3.2.1.1) (0.5 mg/mL in 0.02 M sodium phosphate buffer, pH 6.9 with 0.006 M NaCl) and was incubated at 37 °C for 20 min; then, 250 μL of starch solution (1% in sodium phosphate buffer) was added, and the mixture was incubated at 37 °C for 30 min; then, 500 μL of dinitrosalicylic acid (DNS) was added and the mixture was boiled for 5 min. Finally, 5 mL of distilled water was added to the reaction mixture. […] The calculation of the results was carried out using the following formula:(4) % Amylase inhibition=ΔAcontrol−ΔAsample/ΔAcontrol × 100\n(§1) The IC50 values were calculated via the linear regression analysis. Significant statistical differences were considered at p < 0.05."}, "[4]": {"target": "T2, lipoxygenase (EC 1.13.11.12) (Glycine max, UniProt P08170)", "T2 sequence (P08170 1-839)": "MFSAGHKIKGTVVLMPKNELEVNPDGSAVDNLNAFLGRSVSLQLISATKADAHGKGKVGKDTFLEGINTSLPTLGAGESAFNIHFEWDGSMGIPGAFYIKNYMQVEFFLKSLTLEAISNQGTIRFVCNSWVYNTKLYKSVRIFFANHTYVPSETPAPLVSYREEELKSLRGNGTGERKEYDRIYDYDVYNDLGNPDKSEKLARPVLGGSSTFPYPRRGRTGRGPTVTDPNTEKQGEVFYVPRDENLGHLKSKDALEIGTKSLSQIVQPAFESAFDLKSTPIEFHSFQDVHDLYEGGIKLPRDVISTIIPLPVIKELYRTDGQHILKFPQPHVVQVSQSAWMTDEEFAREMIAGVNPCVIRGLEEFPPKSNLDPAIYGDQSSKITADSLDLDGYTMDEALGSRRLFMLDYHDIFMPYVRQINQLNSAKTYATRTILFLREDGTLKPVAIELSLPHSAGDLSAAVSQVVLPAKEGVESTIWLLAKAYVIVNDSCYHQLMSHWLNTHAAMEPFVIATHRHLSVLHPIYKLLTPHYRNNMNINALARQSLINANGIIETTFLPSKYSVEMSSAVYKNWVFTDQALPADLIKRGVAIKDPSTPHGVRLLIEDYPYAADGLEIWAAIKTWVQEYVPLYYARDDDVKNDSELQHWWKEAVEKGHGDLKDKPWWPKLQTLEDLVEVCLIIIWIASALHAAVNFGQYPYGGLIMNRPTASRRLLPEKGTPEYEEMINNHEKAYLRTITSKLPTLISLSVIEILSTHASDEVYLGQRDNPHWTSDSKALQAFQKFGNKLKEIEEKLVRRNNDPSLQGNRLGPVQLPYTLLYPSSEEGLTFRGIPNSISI", "test": "Lipoxygenase inhibition assay", "assay_type": "biochemical", "details": "234 nm, mean ± SD of triplicate", "description": "as §1"}, "[5]": {"target": "α-glucosidase from Saccharomyces cerevisiae (EC 3.2.1.20) (Saccharomyces cerevisiae, UniProt P53341)", "sequence (P53341 whole entry)": "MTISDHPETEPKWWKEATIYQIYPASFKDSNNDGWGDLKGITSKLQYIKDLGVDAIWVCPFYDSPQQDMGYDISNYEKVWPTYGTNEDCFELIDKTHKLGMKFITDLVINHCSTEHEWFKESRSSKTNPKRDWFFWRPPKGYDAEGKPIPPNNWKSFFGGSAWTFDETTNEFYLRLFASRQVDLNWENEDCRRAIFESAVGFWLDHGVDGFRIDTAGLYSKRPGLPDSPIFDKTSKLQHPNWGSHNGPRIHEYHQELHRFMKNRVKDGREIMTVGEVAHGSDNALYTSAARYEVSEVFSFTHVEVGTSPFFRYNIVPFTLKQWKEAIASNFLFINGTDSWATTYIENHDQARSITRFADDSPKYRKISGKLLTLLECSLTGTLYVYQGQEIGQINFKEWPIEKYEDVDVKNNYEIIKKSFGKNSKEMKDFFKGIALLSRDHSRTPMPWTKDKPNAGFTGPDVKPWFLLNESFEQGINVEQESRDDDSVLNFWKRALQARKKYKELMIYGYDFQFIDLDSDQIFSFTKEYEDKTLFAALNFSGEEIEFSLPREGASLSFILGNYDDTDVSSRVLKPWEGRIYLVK", "test": "α-Glucosidase inhibition assay", "assay_type": "biochemical", "description": "as §1"}, "[6]": {"details": "linoleic acid substrate, read-out: Inhibition of LOX IC50 (converted)"}}, "note": "Like-named read-outs stand apart in the source and are kept apart here."}
{"smiles": "O=C1O[C@H]([C@@H](O)CO)C(O)=C1O", "note": "[Ascorbic acid]", "values": [{"measurement": "Reducing Power %", "setting": "[1]", "value": "34.5 ± 1.3", "unit": "%"}, {"measurement": "% DPPH Inhibition", "setting": "[2]", "value": "96.9 ± 3.6", "unit": "%"}]}
{"smiles": "O=C(/C=C/c1ccc(O)c(O)c1)O[C@@H]1C[C@](O)(C(=O)O)C[C@@H](O)[C@H]1O", "note": "[Chlorogenic acid]", "values": [{"measurement": "IC50", "setting": "[3]", "value": 5.36, "unit": "µM"}, {"measurement": "IC50", "setting": "[4]; [6]", "value": 73.7, "unit": "µM"}]}
{"smiles": "O=C(/C=C/c1ccc(O)c(O)c1)O[C@H](Cc1ccc(O)c(O)c1)C(=O)O", "note": "[Rosmarinic acid]", "values": [{"measurement": "IC50", "setting": "[5]", "value": 0.5, "unit": "µM"}, {"measurement": "IC50", "setting": "[3]", "value": 2.5, "unit": "µM"}, {"measurement": "IC50", "setting": "[4]; Inhibition of LOX IC50, linoleic acid substrate", "value": 84.1, "unit": "µM"}]}
{"smiles": "C[C@@H]1O[C@@H](OC[C@H]2O[C@@H](Oc3c(-c4ccc(O)c(O)c4)oc4cc(O)cc(O)c4c3=O)[C@H](O)[C@@H](O)[C@@H]2O)[C@H](O)[C@H](O)[C@H]1O", "note": "[Rutin]", "values": [{"measurement": "IC50", "setting": "[4]; [6]", "value": 36.6, "unit": "µM"}]}
